For one series, the system named is NOMO-1. Kind of series: CellTiter-Blue assay, haematological cell line. Type of series: cell-based. The settings on record: Homo sapiens, 96 h; NOMO-1 (AML), four days treatment. How it is done:
(§1) The compounds of Examples 2 and 7 were tested against a range of human haematological cell lines using the CellTiter-Blue® assay (#G8081, Promega) according to the manufacturer's instructions. Cells were harvested from exponential phase cultures, counted and plated in 96 well flat-bottom microtiter plates at a cell density of 20,000-90,000 cells/well. After a 24 h recovery period to allow the cells to resume exponential growth, 10 μl of culture medium (four control wells/plate) or of culture medium with test compound were added. The compounds were applied in duplicates at ten concentrations and treatment continued for four days. After treatment of cells, 10 μl/well CellTiter-Blue® reagent was added. Following an incubation period of up to four hours, fluorescence (FU) was measured by using the EnVision Xcite multilabel reader (excitation λ=531 nm, emission λ=615 nm). The compounds were tested in two to four independent experiments for each cell line.
A general note: The colour change of resazurin is a common sign of viable cells or microbes.

A further series has as its system L-363. Kind of series: CellTiter-Blue assay, haematological cell line. It is filed as cell-based. The settings on record: Homo sapiens, 96 h; L-363 (MM), four days treatment. How it is done:
as §1

For another series, the system named is JURL-MK1. Description: CellTiter-Blue assay, haematological cell line. Type of series: cell-based. Particulars: Homo sapiens, 96 h; JURL-MK1 (CML), four days treatment. Here is the method: as §1
A further series relates to RAJI. Kind of series: CellTiter-Blue assay, haematological cell line. Type of series: cell-based. Particulars: Homo sapiens, 96 h; RAJI (NHL), four days treatment. How it is done:
as §1

A further series relates to K-562. Description: CellTiter-Blue assay, haematological cell line. The settings on record: Homo sapiens, K562, 96 h; K-562 (CML), four days treatment. It is filed as cell-based. Here is the method:
as §1

The subject of another series is MV4-11. Description: CellTiter-Blue assay, haematological cell line. Type of series: cell-based. The settings on record: Homo sapiens, 96 h; MV4-11 (AML), four days treatment. Here is the method:
as §1

The next series relates to MEG-01. Kind of series: CellTiter-Blue assay, haematological cell line. Type of series: cell-based. The settings on record: Homo sapiens, 96 h; MEG-01 (CML), four days treatment. Here is the method: as §1
The subject of a further series is JURKAT. Description: CellTiter-Blue assay, haematological cell line. Type of series: cell-based. The settings on record: Homo sapiens, 96 h; JURKAT (ALL), four days treatment. How it is done: as §1
The subject of another series is NCI-H929. Description: CellTiter-Blue assay, haematological cell line. It is filed as cell-based. Particulars: Homo sapiens, 96 h; NCI-H929 (MM), four days treatment. Here is the method: as §1
Another series concerns OCI-AML2. Kind of series: CellTiter-Blue assay, haematological cell line. Type of series: cell-based. The settings on record: Homo sapiens, 96 h; OCI-AML2 (AML), four days treatment. Here is the method:
as §1

A further series has as its system KM-H2. Description: CellTiter-Blue assay, haematological cell line. Type of series: cell-based. Particulars: Homo sapiens, 96 h; KM-H2 (HL), four days treatment. How it is done: as §1
In another series the test system is LP-1. Description: CellTiter-Blue assay, haematological cell line. Particulars: Homo sapiens, 96 h; LP-1 (MM), four days treatment. Type of series: cell-based. How it is done:
as §1

The subject of another series is HUT-78. Kind of series: CellTiter-Blue assay, haematological cell line. The settings on record: Homo sapiens, HuT78, 96 h; HUT-78 (NHL), four days treatment. Type of series: cell-based. Here is the method:
as §1

In the next series the test system is CCRF-CEM/VCR. Kind of series: CellTiter-Blue assay, haematological cell line. It is filed as cell-based. Particulars: Homo sapiens, 96 h; CCRF-CEM/VCR (ALL), four days treatment. How it is done: as §1
A further series concerns PL-21. Kind of series: CellTiter-Blue assay, haematological cell line. Type of series: cell-based. The settings on record: Homo sapiens, 96 h; PL-21 (AML), four days treatment. How it is done:
as §1

Another series has as its system KG-1. Kind of series: CellTiter-Blue assay, haematological cell line. It is filed as cell-based. The settings on record: Homo sapiens, 96 h; KG-1 (AML), four days treatment. Here is the method: as §1
A further series deals with HL-60. Kind of series: CellTiter-Blue assay, haematological cell line. Type of series: cell-based. The settings on record: Homo sapiens, 96 h; HL-60 (AML), four days treatment. How it is done:
as §1

The next series deals with MOLT-4. Description: CellTiter-Blue assay, haematological cell line. Type of series: cell-based. The settings on record: Homo sapiens, 96 h; MOLT-4 (ALL), four days treatment. How it is done:
as §1

The subject of the next series is U-937. Description: CellTiter-Blue assay, haematological cell line. It is filed as cell-based. Particulars: Homo sapiens, 96 h; U-937 (NHL), four days treatment. Here is the method:
as §1

A short description of series [1]: Body weight / tolerability in MV4-11-bearing nude mice. Type of series: in vivo, Balb/c nude mouse. Here is the method: A total of 52 female nude mice were used. The mice were allowed 3 days of acclimatization period before starting the experiment. Mice were implanted subcutaneously (s.c.) with 200 μl of 1×10^7MV4-11 tumour cells in 50% Matrigel in the right flank at the beginning of the study. When tumours reached an average volume of 100-150 mm^3, 32 mice out of the 52 were selected based on tumour volume, and randomly assigned to 4 groups prior to dosing. Each treatment group consisted of 8 tumour-bearing animals (n=8/group).
A comparison group of mice were treated with cytarabine once daily for 5 days on, 2 days off, for 4 cycles.
Mice were weighed at each dosing and the tumour sizes recorded twice each week. Mice were observed closely for any overt signs of adverse, treatment-related side effects and these were recorded if and when they were observed.
Mice were euthanized by CO2 exposure after 4-cycle dose. The tumour volume, weight of dissected tumours, and the mouse body weight were measured and recorded. The tumour inhibitory rate (IR) was calculated by the formula IR=(WV−WT)/WV×100%.

The test system of another series is HCT-116. Description: Polyploid phenotype in HCT-116 cells. Type of series: cell-based, human. Here is the method: The anti-proliferative activities of compounds of the invention are determined by measuring the ability of the compounds to inhibit the growth of the colorectal cancer derived cell-line HCT-116. Inhibition of cell growth is measured using the Alamar Blue assay (Nociari et al., Journal of Immunological Methods (1998) 213, 157-167). The method is based on the ability of viable cells to reduce resazurin to its fluorescent product resorufin. For each proliferation assay cells are plated onto 96 well plates and allowed to recover for 16 hours prior to the addition of inhibitor compounds for a further 96 hours. At the end of the incubation period 10% (v/v) Alamar Blue is added and incubated for a further 6 hours prior to determination of fluorescent product at Excitation 535 nm and Emission 590 nm. All cell lines are obtained from ECACC (European Collection of cell Cultures).
The activities of the compounds of the invention against the human colorectal cancer cell line HCT-116 are shown the in the table below. The column headed HCT-116 96 Hrs refers to the concentration of compound required to reduce the proliferation of HCT-116 cells by 50% following a 96 h period of exposure. The column headed [Polyploidy] refers to the lowest concentration of compound required to produce a distinct polyploid phenotype, believed to be due to Aurora B inhibition.

The term IC50 denotes the concentration needed to halve the response being measured. A lower IC50 goes with inhibition by little substance.

In the case of `Cc1ccc2[nH]ccc2c1-c1nc(C(N)=O)c(-c2ccc(N3CCNC(C)(C)C3)cc2)o1` [Example 2, 2-(5-Methyl-1H-Indol-4-yl)-5-[4-(3,3-dimethyl-piperazin-1-yl)-phenyl]-oxazole-4-carboxylic acid amide], the 50% inhibitory concentration (IC50) in the series on NOMO-1 was found to be 95 nM; in the series on L-363 it was 121 nM; in the series with JURL-MK1, 141 nM; in the series on RAJI, 2850 nM; with K-562, 326 nM; in the series with MV4-11, 9 nM. For the same compound, the half-inhibitory concentration (IC50) in the series on MEG-01 worked out at 633 nM; in the series with JURKAT, 91 nM; with NCI-H929, 852 nM; in the series with OCI-AML2, 103 nM; with KM-H2 it was 189 nM; in the series with LP-1, 1070 nM. In addition, the IC50 with HUT-78 turned out to be 138 nM; with CCRF-CEM/VCR, 458 nM; in the series with PL-21 it was 99 nM; in the series on KG-1 it was 76 nM; with HL-60, 64 nM; in the series with MOLT-4 it was 48 nM. In the series with U-937, this compound registered a 50% inhibitory concentration (IC50) of 94 nM. Besides, the “toxicity in xenograft study” value in series [1] (20 mg/kg IV BID) is “without any obvious toxicity”. In addition, in the series with HCT-116, the “[Polyploidy] lowest concentration producing a distinct polyploid phenotype” value is 0.03 µM.

For the compound `Cc1cc(F)c2[nH]ccc2c1-c1nc(C(N)=O)c(-c2ccc(N3CCNC(C)(C)C3)cc2)o1` [Example 7, 2-(5-Methyl-7-Fluoro-1H-Indol-4-yl)-5-[4-(3,3-dimethyl-piperazin-1-yl)-phenyl]-oxazole-4-carboxylic acid amide], the concentration for half-maximal inhibition (IC50) in the series on NOMO-1 was 61 nM; in the series with L-363 it was 104 nM; in the series on JURL-MK1, 98 nM; in the series on RAJI it was 1800 nM; in the series on K-562, 219 nM; with MV4-11 it was 9 nM. In addition, the concentration for half-maximal inhibition (IC50) in the series on MEG-01 was determined as 468 nM; in the series on JURKAT, 93 nM; in the series on NCI-H929 it was 1400 nM; in the series with OCI-AML2 it was 91 nM; with KM-H2, 137 nM; in the series on LP-1, 1010 nM. For the same compound, the IC50 came out at 123 nM with HUT-78; 239 nM in the series on CCRF-CEM/VCR; 91 nM in the series on PL-21; 137 nM with KG-1; 52 nM in the series with HL-60; 45 nM with MOLT-4. Also, the IC50 with U-937 is 155 nM. Also, the “toxicity in xenograft study” value in series [1] (30 mg/kg IV BID) is given as “without any obvious toxicity”. Further, the “[Polyploidy] lowest concentration producing a distinct polyploid phenotype” value in the series with HCT-116 amounted to 0.1 µM.

Source of the values: patent US9133180B2, “Aurora and FLT3 kinases modulators” (SAREUM LIMITED, priority 2012, dated 2015).
